Source: patent publication US7589077B2, “Antiviral nucleosides” (priority 2001, dated 2009)
Where two headings read alike, the source gives them in different places.

Tests used:
HFF cells = test: Cell viability in HFF cells (neutral red); assay type: cell-based, human
Protocol: Twenty-four hours prior to assay HFF cells were plated into 96 well plates at a concentration of 2.5×10^4 cells per well. […] The plates were incubated for 7 days in a CO2 incubator at 37° C. At this time the media/drug was aspirated and 200 μL/well of 0.01% neutral red in Dulbecco's Phosphate Buffered Saline (DPBS) was added. This was incubated in the CO2 incubator for 2 h, the dye was aspirated and the cells were washed using a Nunc Plate Washer. After removing the DPBS wash, […] of 50% EtOH: 1% glacial acetic acid in water was added. The plates were rotated for 15 min. and the optical densities were read at 550 nm on a plate reader.

VZV (Ellen) = test: CPE inhibition assay VZV (Ellen) in HFF cells; assay type: cell-based, varicella zoster virus
Protocol: (§1) Cytopathic effect (CPE) inhibition assays for HSV-1, HSV-2, HCMV and VZV were performed as follows: Low passage human foreskin fibroblasts (HFF) cells were seeded into 96 well tissue culture plates 24 h prior to use at a cell concentration of 2.5×10^4 cells per mL in 0.1 mL of minimal essential medium (MEM) supplemented with 10% fetal bovine serum (FBS). The cells were then incubated for 24 h at 37° C. in a CO2 incubator. After incubation, the medium was removed and 100 μL of MEM containing 2% FBS was added to all but the first row. In the first row, 125 μL of experimental drug was added in triplicate wells. Medium alone was added to both cell and virus control […]. After incubation, the medium was removed and 100 μl of MEM containing 2% FBS was added to all but the first row. Medium alone was added to both cell and virus control wells. 125 μl of Experimental drug was added in triplicate wells. The drug in the first row of wells was then diluted serially 1:5 throughout the remaining wells by transferring 25 μL using the Cetus Liquid Handling Machine. After dilution of drugs, 100 μL of the appropriate virus concentration was added to each well, excluding the cell control wells which received 100 μL of MEM. For HSY-1 and HSV-2 assays, the virus concentration utilized was 1000 PFU's per well. For CMV and VZV assays, the virus concentration added was 2500 PFU's per well. The plates were then incubated at 37° C. in a CO2 incubator for 3 days for HSV-1 and HSV-2, 10 days for VZV, or 14 days for CMV. After the incubation period, media was aspirated and the cells stained with a 0.1% crystal violet solution for 30 min. The stain was then removed and the plates were allowed to dry 24 h and then read on a Skatron Plate Reader at 620 nm.

Epstein-Barr Virus (EBV) = test: EBV immunofluorescence assay in DAUDI cells (P3HR-1 strain); assay type: cell-based
Protocol: The immunofluorescence assay, using monoclonal antibodies, for Epstein-Barr Virus (EBV) was performed as follows: DAUDI cells were infected with the P3HR-1 strain of EBV and the test drug was added after adsorption (45 min. at 37° C.) and washing of the cell cultures. These cultures were then incubated for 2 days in complete medium to allow viral gene expression. Following the 48 h incubation period, the number of cells in each sample were counted and smears were made. Monoclonal antibodies to the different early antigen (EA) components and VCA were than added to the cells, incubated and washed. This was followed by the addition of a fluorescein conjugated rabbit anti mouse Ig antibodies. The number of fluorescence positive cells in the smears were counted and the total number of cells in the cultures positive for EA or VCA were then calculated and compared.

CEM cells = test: Cell cytotoxicity in CEM cells; assay type: cell-based; conditions: Table 3a
human HBV = test: HBV DNA replication in HepG2 2.2.15 cells; assay type: cell-based, hepatitis B virus; conditions: Table 3a; read-out: % Inhibition of human HBV DNA replication in HepG2 2.2.15 cells EC50
Protocol: The compounds were assayed for a) their ability to inhibit DHBV DNA replication in duck hepatocytes, b) their ability to inhibit HBV DNA replication in HepG2 2.2.15 cells, c) the cell cytotoxicity in Vero cells, the cell viability in HFF cells, d) the cell proliferation in HFF cells, and e) the T cell proliferation (purified T cells, PHA stimulated). 3-TC was used as a control. Additional compounds described below in the Preparative Examples section were also tested, and the results are shown in Tables 2-4 below. The reference numbers for the compounds are found in the Preparative Examples.

HSV-2 (MS) = test: CPE inhibition assay HSV-2 (MS) in HFF cells; assay type: cell-based, Herpes simplex virus type-2; conditions: Table 4
Protocol: as §1

HSV-1 (KOSSB) HSV-TK− = test: microbe, parasite or virus in culture; assay type: cell-based, Herpes simplex virus type-1; conditions: Table 4
Protocol: as §1, with “The” for “Cytopathic effect (CPE) inhibition assays for HSV-1, HSV-2, HCMV and VZV were performed as follows: Low passage human foreskin fibroblasts (HFF) cells were seeded into 96 well tissue culture plates 24 h prior to use at a cell concentration of 2.5×10^4 cells per mL in 0.1 mL of minimal essential medium (MEM) supplemented with 10% fetal bovine serum (FBS). The”

HSV-1 (E-377) = test: CPE inhibition assay HSV-1 (E-377) in HFF cells; assay type: cell-based, Herpes simplex virus type-1; conditions: Table 4
Protocol: as §1

HCMV (AD169) = test: CPE inhibition assay HCMV (AD169) in HFF cells; assay type: cell-based, human cytomegalovirus; conditions: Table 4
Protocol: as §1

[1] = tested on: duck hepatitis B virus (DHBV); test: DHBV DNA replication in primary duck hepatocytes (dot blot hybridization); assay type: cell-based
Protocol: A series of compounds were synthesized and assayed for activity against duck hepatitis B virus (DHBV). […] Test compounds were added to the hepatocyte cultures on day 2 and maintained in culture with media changed every second day until day 12. Cell were harvested at day 14 and lysed with buffer containing 1% SDS. DNA was isolated from the lysate and dot blot hybridization was performed using a DHBV (32P) DNA probe. […]
(§2) The compounds were assayed for a) their ability to inhibit DHBV DNA replication in duck hepatocytes, b) their ability to inhibit HBV DNA replication in HepG2 2.2.15 cells, c) the cell cytotoxicity in Vero cells, the cell viability in HFF cells, d) the cell proliferation in HFF cells, and e) the T cell proliferation (purified T cells, PHA stimulated). 3-TC was used as a control.

HSV-1 (KOS) HSV-TK+ = HSV-1 (KOS) HSV-TK+ antiviral assay; assay type: cell-based, Herpes simplex virus type-1; conditions: Table 4
Protocol: as §1

whole human PBLs = test: Cell proliferation, whole human PBLs; assay type: cell-based; conditions: Table 1
Vero cells = test: Cell cytotoxicity in Vero cells; assay type: cell-based; conditions: Table 1
Protocol: as §2

With `CCO[C@@H]1C(Cl)C(=O)NC(=O)N1[C@H]1C[C@H](F)[C@@H](CO)O1` (single isomer, unassigned; (+)) [RB-2] the CC50 (HFF cells; Table 3a, read-out: Cell viability HFF cells CC50) was over 330 µM, the “VZV (Ellen) EC50” value (VZV (Ellen); Table 3a) was 0.3 mg/L and the “EBV EC50” value (Epstein-Barr Virus (EBV); Table 3a) was 0.15 to 0.3 mg/L. For the same molecule, the “EBV EC90” value (Epstein-Barr Virus (EBV); Table 3a, in parentheses) was 9.8 mg/L, the CC50 (CEM cells) was over 200 µM and the EC50 (human HBV) was 2.8 µM.

“(5R,6R)5-fluoro-O^6-5′-cyclo-5,6-dihydro-3′-azido-3′-deoxythymidine [Compound R-14]” was tested, and the CC50 (HFF cells; Table 1, read-out: Cell viability, HFF cells, CC50 μM) was over 350 µM, the “HSV-2 (MS) EC50” value (HSV-2 (MS)) was over 100 mg/L and the “HSV-1 (KOSSB) HSV-TK− EC50” value (HSV-1 (KOSSB) HSV-TK−) was over 50 mg/L. For the same molecule, the “VZV (Ellen) EC50” value (VZV (Ellen); Table 4) was over 100 mg/L, the “HSV-1 (E-377) EC50, μg/ml” value (HSV-1 (E-377)) was over 100 μg/ml and the “HCMV (AD-169) EC50” value (HCMV (AD169)) was over 100 mg/L. For the same molecule, the “% Inhibition of DHBV DNA replication in duck hepatocytes @10 μg/ml” value [1] was 81.0%, the “HSV-1 (KOS) HSV-TK+ EC50” value (HSV-1 (KOS) HSV-TK+) was over 25 mg/L and the “EBV EC50” value (Epstein-Barr Virus (EBV); Table 4) was under 0.08 mg/L. The IC50 (whole human PBLs) was over 350 µM and the CC50 (Vero cells) was 100 to 200 µM.
